Test results taken from US20240173419A1, “CDK2 DEGRADERS AND USES THEREOF” (Kymera Therapeutics, Inc., priority 2022, published 2024).

Biological target: T1, CDK2 (Homo sapiens, UniProt P24941)
T1 construct: endogenous in cells; host or cells: MKN1 cells
Assay: CDK2 degradation in MKN1 cells (AlphaLISA)
Type: cell-based
Conditions: for CDK2 degradation 14 h: Average Dmax % / DC50: 14 h incubation; for DC50: read-out: CDK2 degradation 14 h: Mean external-Abs DC50; for Dmax: MKN-1, 14 h incubation
Method in brief: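 DC50 from four-parameter logistic fit of AlphaLISA CDK2 signal, corrected for no-cell wells. Lysates came from MKN1 cells, 2e4 per well, exposed 14 h at 37° C to compound at 0.001 nM-10 μM (1:5 series, 11 doses) in 0.1% DMSO.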

| CDK2 degradation 14 h: Average Dmax % | DC50 | Dmax | Structure (SMILES) |
| --- | --- | --- | --- |
| A (A (>75% o)) | < 100 nM |  | Cc1cc(S(=O)(=O)NCCOC2CCN(CC3CCN(c4ccc5c(c4)n(C)c(=O)n5C4CCC(=O)NC4=O)CC3)CC2)ccc1Nc1ncc2cc(Cl)c(=O)n(C3CCCC3)c2n1 (centres unmarked) [I-434] |
| D (D (<25%)) | > 1000 nM |  | Cc1cc(S(=O)(=O)NCCOCCOCCCc2ccc3c(c2)n(C)c(=O)n3C2CCC(=O)NC2=O)ccc1Nc1ncc2c(C)cc(=O)n(C3CCCC3)c2n1 (centres unmarked) [I-466] |
| A (A (>75% o)) | < 100 nM |  | Cc1cc(S(=O)(=O)C2CCC(CN(C)C3CCN(c4cccc5c4n(C)c(=O)n5C4CCC(=O)NC4=O)CC3)CC2)ccc1Nc1ncc(C(F)(F)F)c(-c2cnn(C)c2)n1 (centres unmarked) [I-46] |
| A (A (>75% o)) | < 100 nM |  | Cc1cc(S(=O)(=O)N2CCC(CN(C)C3CCN(c4cccc5c4n(C)c(=O)n5C4CCC(=O)NC4=O)CC3)CC2)ccc1Nc1ncc2cc(Cl)c(=O)n(C3CCCC3)c2n1 (centres unmarked) [I-442] |
| A (A (>75% o)) | < 100 nM |  | Cc1cc(S(=O)(=O)NC2CCN(CC3CCN(c4ccc(C5CCC(=O)NC5=O)cc4F)CC3)CC2F)ccc1Nc1ncc(C(F)(F)F)c(N2CCCC(C)(O)C2)n1 (centres unmarked) [I-1141] |
| A (A (>75% o)) | < 100 nM |  | CC(C1CCN(c2ccc(C3CCC(=O)NC3=O)c(F)c2)CC1)N1CCC(NS(=O)(=O)c2ccc(Nc3ncc(C(F)(F)F)c(N4CCCC(C)(O)C4)n3)c(F)c2)C(F)C1 (centres unmarked) [I-1067] |
|  | < 100 nM | > 75% | Cc1cc(S(=O)(=O)NC2CCC(CN3CCN(c4ccc([C@@H]5CCC(=O)NC5=O)c(Cl)c4)CC3)CC2)ccc1Nc1ncc(C(F)(F)F)c(N2CCC[C@](C)(O)C2)n1 (single isomer, unassigned) [I-809] |
| A (A (>75% o)) | < 100 nM |  | Cc1cc(S(=O)(=O)NC(C)COC2CCC(CN3CCN(c4ccc5c(c4F)n(C)c(=O)n5C4CCC(=O)NC4=O)CC3)CC2)ccc1Nc1ncc(C(F)(F)F)c(N2CCCC(C)(O)C2)n1 (centres unmarked) [I-844] |
| B (B (>50% -75%)) | > 1000 nM |  | Cc1cc(S(=O)(=O)N2CCC(C(F)(F)CN3CCN(c4cccc5c4n(C)c(=O)n5C4CCC(=O)NC4=O)CC3)CC2)ccc1Nc1ncc2cc(Cl)c(=O)n(C3CCCC3)c2n1 (centres unmarked) [I-163] |
| A (A (>75% o)) | < 100 nM |  | Cc1cc(S(=O)(=O)C2CC3(CCN(CC4CCN(c5cccc(NC6CCC(=O)NC6=O)c5)CC4)CC3)C2)ccc1Nc1ncc2cc(Cl)c(=O)n(C3CCCC3)c2n1 (centres unmarked) [I-87] |
| A (A (>75% o)) | < 100 nM |  | Cc1cc(S(=O)(=O)NCCOCCOCCCc2cccc3c2n(C)c(=O)n3C2CCC(=O)NC2=O)ccc1Nc1ncc2cc(C(F)F)c(=O)n([C@@H]3CCC[C@]3(C)O)c2n1 (some centres unmarked) [I-487] |
| A (A (>75% o)) | < 100 nM |  | CC1(O)CCCN(c2nc(Nc3ccc(S(=O)(=O)NC4CCC(CN5CCN(c6ccc(C7CCC(=O)NC7=O)cc6)CC5)CC4)cc3C(F)F)ncc2C(F)(F)F)C1 (centres unmarked) [I-1102] |

Continued, compound first:

| Structure (SMILES) | CDK2 degradation 14 h: Average Dmax % | DC50 | Dmax |
| --- | --- | --- | --- |
| Cc1cc(S(=O)(=O)NC(C)COC2CCC(CN3CCN(c4ccc5c(c4F)n(C)c(=O)n5C4CCC(=O)NC4=O)CC3)CC2)ccc1Nc1ncc(C(F)(F)F)c(N2CCC(C(C)(C)O)C2)n1 (centres unmarked) [I-857] | A (A (>75% o)) | < 100 nM |  |
| Cc1cc(S(=O)(=O)N2CCC(N(C)CC3CCN(c4cccc5c4n(C)c(=O)n5C4CCC(=O)NC4=O)CC3)C(F)(F)C2)ccc1Nc1ncc2cc(Cl)c(=O)n(C3CCCC34CC4)c2n1 (centres unmarked) [I-355] | D (D (<25%)) | > 1000 nM |  |
| Cc1cc(S(=O)(=O)NC2CCN(CC3CCN(c4ccc(C5CCC(=O)NC5=O)cc4F)CC3)CC2F)ccc1Nc1ncc(C(F)(F)F)c(N2CCCC(C)(O)C2)n1 (centres unmarked) [I-1140] | A (A (>75% o)) | < 100 nM |  |
| Cc1cc(S(=O)(=O)NCCOCCOCCNC(=O)COc2ccc(C3CCC(=O)NC3=O)cc2)ccc1Nc1ncc2cc(Cl)c(=O)n(C3CCCC3)c2n1 (centres unmarked) [I-401] | B (B (>50% -75%)) | < 100 nM |  |
| Cc1cc(S(=O)(=O)NC2CC(N3CCN(CC4CCN(c5ccc(Cl)c(C6CCC(=O)NC6=O)c5)CC4)CC3)C2)ccc1Nc1ncc(C(F)(F)F)c(N2CCCC(C)(O)C2)n1 (centres unmarked) [I-715] | A (A (>75% o)) | < 100 nM |  |
| Cc1cc(S(=O)(=O)C2CC3(CCN(CC4CCN(c5ccc(NC6CCC(=O)NC6=O)c(F)c5)CC4)CC3)C2)ccc1Nc1ncc2cc(Cl)c(=O)n(C3CCCC3)c2n1 (centres unmarked) [I-90] | B (B (>50% -75%)) | 100 to 500 nM |  |
| Cc1cc(S(=O)(=O)NC2CCC(CN3CCN(c4cc(C)c(C5CCC(=O)NC5=O)cc4F)CC3)CC2)ccc1Nc1ncc(C(F)(F)F)c(N2CCCC(C)(O)C2)n1 (centres unmarked) [I-940] | A (A (>75% o)) | < 100 nM |  |
| Cc1cc(S(=O)(=O)C2CC3(CCN(CC4CCN(c5ccc6c(c5F)n(C)c(=O)n6C5CCC(=O)NC5=O)CC4)CC3)C2)ccc1Nc1ncc(C(F)(F)F)c(N2CCCC(C)(O)C2)n1 (centres unmarked) [I-518] | A (A (>75% o)) | < 100 nM |  |
| Cc1cc(S(=O)(=O)C2CC3(CCN(CC4CCN(c5ccc6c(c5F)n(C)c(=O)n6C5CCC(=O)NC5=O)CC4)CC3)C2)ccc1Nc1ncc2c(n1)N(C1CCCC1)C(=O)C21CC1 (centres unmarked) [I-529] | A (A (>75% o)) | < 100 nM |  |
| Cc1cc(S(=O)(=O)NC2CCC(OC3CCN(c4ccc(C5CCC(=O)NC5=O)cc4F)CC3)CC2)ccc1Nc1ncc(C(F)(F)F)c(N2CCCC(C)(O)C2)n1 (centres unmarked) [I-942] | A (A (>75% o)) | < 100 nM |  |
| Cc1cc(S(=O)(=O)NC2CCC(CN3CCC(c4ccc(C5CCC(=O)NC5=O)c(F)c4)CC3)CC2)ccc1Nc1ncc(C(F)(F)F)c(N2CCCC(C)(O)C2)n1 (centres unmarked) [I-1131] | A (A (>75% o)) | < 100 nM |  |
| Cc1cc(S(=O)(=O)N[C@H](C)CO[C@H]2CC[C@H](CN3CCN(c4cccc5c4n(C)c(=O)n5C4CCC(=O)NC4=O)CC3)CC2)ccc1Nc1ncc(C(F)(F)F)c(N2CCC[C@](C)(O)C2)n1 (stereo partly drawn) [I-766, N-[(1R)-2-[4-[[4-[1-(2,6-dioxo-3-piperidyl)-3-methyl-2-oxo-benzimidazol-4-yl]piperazin-1-yl]methyl]cyclohexoxy]-1-methyl-ethyl]-4-[[4-[(3S)-3-hydroxy-3-methyl-1-piperidyl]-5-(trifluoromethyl)pyrimidin-2-yl]amino]-3-methyl-benzenesulfonamide] |  | < 100 nM | > 75% |
| Cc1cc(S(=O)(=O)C(C)CCO[C@H]2CC[C@H](CN3CCC(c4ccc5c(c4)n(C4CCC(=O)NC4=O)c(=O)n5C)CC3)CC2)ccc1Nc1ncc2cc(Cl)c(=O)n(C3CCCC3)c2n1 (some centres unmarked) [I-12] | A (A (>75% o)) | < 100 nM |  |
| Cc1cc(S(=O)(=O)C2CCC3(CC2)CN(CC2CCN(c4ccc5c(c4)n(C)c(=O)n5C4CCC(=O)NC4=O)CC2)C3)ccc1Nc1ncc2cc(Cl)c(=O)n(C3CCCC3)c2n1 (centres unmarked) [I-67] | A (A (>75% o)) | 100 to 500 nM |  |
| Cc1cc(S(=O)(=O)C2CC3(CCN(CC4CCN(c5ccc6c(c5F)n(C)c(=O)n6C5CCC(=O)NC5=O)CC4)CC3)C2)ccc1Nc1ncc(C(F)(F)F)c(N2CCC(C(C)(C)O)C2)n1 (centres unmarked) [I-505] | A (A (>75% o)) | < 100 nM |  |
| Cc1cc(S(=O)(=O)NCCCN2CCN(C3CCN(c4ccc5c(c4)n(C)c(=O)n5C4CCC(=O)NC4=O)CC3)CC2)ccc1Nc1ncc2cc(Cl)c(=O)n(C(C)C)c2n1 (centres unmarked) [I-398] | A (A (>75% o)) | < 100 nM |  |
| Cc1cc(S(=O)(=O)N2CCC3(CCN(CC4CCN(c5ccc6c(c5)n(C)c(=O)n6C5CCC(=O)NC5=O)CC4)CC3)CC2)ccc1Nc1ncc2cc(Cl)c(=O)n(C3CCCC3)c2n1 (centres unmarked) [I-381] | A (A (>75% o)) | < 100 nM |  |
| Cc1cc(S(=O)(=O)N2CCC(CN(C)C3CCN(c4cccc5c4n(C)c(=O)n5C4CCC(=O)NC4=O)CC3)CC2)ccc1Nc1ncc2ccc(=O)n(C3CCCC3)c2n1 (centres unmarked) [I-450] | A (A (>75% o)) | < 100 nM |  |
| Cc1cc(S(=O)(=O)C2CC3(CCN(CC4CCN(c5ccc(NC6CCC(=O)NC6=O)cc5C)CC4)CC3)C2)ccc1Nc1ncc2cc(Cl)c(=O)n(C3CCCC3)c2n1 (centres unmarked) [I-75] | B (B (>50% -75%)) | 100 to 500 nM |  |
| Cc1cc(S(=O)(=O)C2CC3(CCN(CC4CCN(c5cccc(N6CCC(=O)NC6=O)c5)CC4)CC3)C2)ccc1Nc1ncc2cc(Cl)c(=O)n(C3CCCC3)c2n1 [I-78] | D (D (<25%)) | > 1000 nM |  |
| Cc1cc(S(=O)(=O)C2CCN(CCN3CCC(c4cccc5c4n(C)c(=O)n5C4CCC(=O)NC4=O)CC3)CC2)ccc1Nc1ncc2cc(Cl)c(=O)n(C(C)C)c2n1 (centres unmarked) [I-8] | B (B (>50% -75%)) | 100 to 500 nM |  |
| Cc1cc(S(=O)(=O)NCCCCCCc2cccc3c2n(C)c(=O)n3C2CCC(=O)NC2=O)ccc1Nc1ncc2cc(C(F)F)c(=O)n(C3CCCC3(C)O)c2n1 (centres unmarked) [I-976] | B (B (>50% -75%)) | < 100 nM |  |
| Cc1cc(S(=O)(=O)N2CCC(CN(C)C3CCN(Cc4cccc5c4n(C)c(=O)n5C4CCC(=O)NC4=O)CC3)CC2)ccc1Nc1ncc2ccc(=O)n(C3CCCC3)c2n1 (centres unmarked) [I-449] | A (A (>75% o)) | < 100 nM |  |
| Cc1cc(S(=O)(=O)N2CCN(CCC3CCN(c4cccc5c4n(C)c(=O)n5C4CCC(=O)NC4=O)CC3)CC2)ccc1Nc1ncc2cc(Cl)c(=O)n(C(C)C)c2n1 (centres unmarked) [I-393] | B (B (>50% -75%)) | 100 to 500 nM |  |
| Cc1cc(S(=O)(=O)N2CCC(Cn3cnc4c3CCN(c3ccc5c(c3F)n(C)c(=O)n5C3CCC(=O)NC3=O)C4)CC2)ccc1Nc1ncc2ccc(=O)n(C3CCCC3)c2n1 (centres unmarked) [I-280] | C (C (>25% -50%)) | > 1000 nM |  |
